According to paper PMC12175177 (Frontiers in Pharmacology, 2025):
pIC50: −log10 of the molar value. Converted amounts (≈) assume the structure as drawn. Where a name gives a salt, the structure may show the parent alone. Read-outs that look alike come from different tables or passages of the source.

Columns and labels:
Format in all cases: cell-based
SARS-CoV-2 A2.5 variant = assay: microbe, parasite or virus in culture; conditions: for IC50: read-out: IC50% in µg/mL
[1] = test system: SARS-CoV-2 Delta variant (SEQ203); conditions: for % inhibition Vero E6 Delta MOI 0.0001 / % inhibition Vero E6 Delta MOI 0.01: at MNCC, 48 h; for % inhibition Vero E6 Delta MOI 0.0001: 1x; for % inhibition Vero E6 Delta MOI 0.01: mean 2x
[2] = test system: SARS-CoV-2 Delta variant (SEQ203); conditions: at MNCC, 48 h, 1x
[3] = test system: SARS-CoV-2 A2.5 variant (M2169); conditions: at MNCC; […]; 48 h; mean 2x
[4] = test system: SARS-CoV-2 A2.5 variant (M2169); conditions: for % inhibition Vero E6 A2.5 MOI 0.01: at MNCC, 48 h, 1x
[5] = Severe acute respiratory syndrome coronavirus 2, Vero C1008, 72 h, read-out: IC50%
[6] = Severe acute respiratory syndrome coronavirus 2, Vero C1008, 72 h
[7] = Severe acute respiratory syndrome coronavirus 2, Vero C1008, read-out: IC90%
[8] = Severe acute respiratory syndrome coronavirus 2, Vero C1008, read-out: IC90% in µg/mL

Compound | % inhibition Vero E6 Delta MOI 0.0001 [1] | % inhibition Vero E6 Delta MOI 0.01 [1] | % inhibition Calu-3 Delta MOI 0.01 [2] | % inhibition Calu-3 A2.5 MOI 0.01 [3] | % inhibition Vero E6 A2.5 MOI 0.01 [4] | antiviral inhibition at MOI = 0.00001 [1] | other results
CCN(CCO)CCCC(C)Nc1ccnc2cc(Cl)ccc12 (centres unmarked) [Hydroxychloroquine sulfate (HCQ), Hydroxychloroquine sulfate] | 43% | 10% | 9% | 16% | 29% |  | pIC50 (SARS-CoV-2 A2.5 variant; [5]): 4.90; IC50 (SARS-CoV-2 A2.5 variant; [6]): 5.8 µg/mL; pIC50 (SARS-CoV-2 A2.5 variant; Severe acute respiratory syndrome coronavirus 2, Vero C1008, read-out: IC50 (Figure 4 curve)): 4.87; IC90 (SARS-CoV-2 A2.5 variant; [7]): 113 µM; IC90 (SARS-CoV-2 A2.5 variant; [8]): 38.1 µg/mL; less potent against the Delta compared to the A2.5 variant [1]: 40%; % inhibition Calu-3 Delta MOI 0.01 ([2]; listed as HCQ): effective; times more potent against A2.5 than Delta ([4]; Vero-E6): 1.8 times
COc1cc(C)c2c(Oc3cccc(C(F)(F)F)c3)c(OC)cc(NC(C)CCCN)c2n1 (centres unmarked) [TQ, tafenoquine] |  |  |  |  |  |  | viral inhibition, secondary screening, Delta [1]: at least 20%
Ferroquine [Ferroquine (FQ)] | 23% | 7% | 4% |  | 12% |  | 
C[C@H]1[C@@H](OCc2ccc(C(=O)O)cc2)O[C@@H]2O[C@@]3(C)CC[C@H]4[C@H](C)CC[C@@H]1[C@@]24OO3 [Artelinic Acid (AA), Artelinic Acid] | 0% | 5% | 7% | 14% | 0% |  | 
CCN(CCO)CCCC(C)Nc1ccnc2cc(Cl)ccc12 (centres unmarked) [Hydroxychloroquine Minsa (HCQ-m), Hydroxychloroquine] | 43% | 18% |  |  | 0% |  | 
CCCCN(CCCC)CC(O)c1cc(Cl)cc2c1-c1ccc(Cl)cc1/C2=C/c1ccc(Cl)cc1 (centres unmarked) [Lumefantrine (LUM), Lumefantrine] | 0% | 14% |  | 19% |  |  | 
CC[C@H](C)[C@H]1O[C@]2(CC[C@@H]1C)C[C@@H]1C[C@@H](C/C=C(\C)[C@@H](O[C@H]3C[C@H](OC)[C@@H](O[C@H]4C[C@H](OC)[C@@H](O)[C@H](C)O4)[C@H](C)O3)[C@@H](C)/C=C/C=C3\CO[C@@H]4[C@H](O)C(C)=C[C@@H](C(=O)O1)[C@]34O)O2 [Ivermectin (IVM), Ivermectin] | 19% | 11% | 17% | 15% | 5% |  | IC50% (SARS-CoV-2 A2.5 variant): 63.6 µg/mL (≈ 72.7 µM); pIC50 (SARS-CoV-2 A2.5 variant; read-out: IC50%): 4.14
OC(c1cc(C(F)(F)F)nc2c(C(F)(F)F)cccc12)C1CCCCN1 (centres unmarked) [Mefloquine (MQ), Mefloquine] | 45% | 6% | 0% | 8% | 16% | ≥ 20% | 
C[C@H]1[C@H](N2CCS(=O)(=O)CC2)O[C@@H]2O[C@@]3(C)CC[C@H]4[C@H](C)CC[C@@H]1[C@@]24OO3 [Artemisone (ASO), Artemisone] | 15% | 10% | 16% |  | showed activity |  | 
C=C[C@H]1C[N@@]2CC[C@H]1C[C@H]2[C@H](O)c1ccnc2ccc(OC)cc12 [Quinine Sulfate (QN), Quinine Sulfate] | 0% | 9% |  | 0% | 18% |  | 
CN(C)c1ccc2nc3ccc(=[N+](C)C)cc-3sc2c1 [Methylene Blue Injection (MBi), Methylene Blue] | 16% | 10% |  | 18% | 2% |  | 
CCN(CC)Cc1cc(Nc2ccnc3cc(Cl)ccc23)ccc1O [Amodiaquine (AQ), Amodiaquine] | 42% | 11% |  | showed activity | showed activity | ≥ 20% | 
CN1CCN(CCCN2c3ccccc3Sc3ccc(Cl)cc32)CC1 [Prochlorperazine (PCPZ), Prochlorperazine] | 6% | 6% | 0% | 16% | 0% |  | 
CN(C)C(=O)COC(=O)Cc1ccc(OC(=O)c2ccc(NC(=N)N)cc2)cc1 [Camostat mesylate (CAM), Camostat mesylate] | 0% | 7% | 4% | 16% | 2% |  | 
O=C(Nc1cccc(C2=NCCN2)c1)Nc1cccc(C2=NCCN2)c1 [Imidocarb (IMI), Imidocarb] | 0% | 11% | 16% | 14% |  |  | 
NC(=O)c1ncn([C@@H]2O[C@H](CO)[C@@H](O)[C@H]2O)n1 [Ribavirin (RIB), Ribavirin] | 44% | 8% | -6% | 11% | 9% | ≥ 20% | 
COc1ccc2nc3cc(Cl)ccc3c(Nc3cc(CN4CCCC4)c(O)c(CN4CCCC4)c3)c2n1 [Pyranoridine (PNO), Pyranoridine] | 43% | 6% | -1% | 1% | 0% | ≥ 20% | 
Ivermectin [Ivermectin Liquida (IVM-li)] | 0% | 15% | 45% |  | 52% |  | % inhibition Calu-3 Delta MOI 0.01 ([2]; listed as IVM-l): ≥ 20%; % inhibition Vero E6 A2.5 MOI 0.01 ([4]; listed as IVM-li): ≥ 20%
CCc1nc(N)nc(N)c1-c1ccc(Cl)cc1 [Pyrimethamina (PYR), Pyrimethamina] | 34% | 9% | 3% | 0% | 0% | ≥ 20% | 
C[C@H]1[C@H](OC(=O)CCC(=O)O)O[C@@H]2O[C@@]3(C)CC[C@H]4[C@H](C)CC[C@@H]1[C@@]24OO3 [Artesunate injection (ASi), Artesunate] | 41% |  |  | 10% | 0% | ≥ 20% | pIC50 (SARS-CoV-2 A2.5 variant; [5]): 4.54; IC50 (SARS-CoV-2 A2.5 variant; [6]): 11 µg/mL; IC90 (SARS-CoV-2 A2.5 variant; [7]): 258 µM; IC90 (SARS-CoV-2 A2.5 variant; [8]): 99.3 µg/mL; less potent against the Delta compared to the A2.5 variant [1]: 20%
CCO[C@H]1O[C@@H]2O[C@@]3(C)CC[C@H]4[C@H](C)CC[C@@H]([C@H]1C)[C@@]24OO3 [Arteether (AE), Arteether] | 23% | 8% | 5% | showed activity | 10% | ≥ 20% | 
C[C@H]1[C@H](OC(=O)CCC(=O)O)O[C@@H]2O[C@@]3(C)CC[C@H]4[C@H](C)CC[C@@H]1[C@@]24OO3 [Artesunic acid (AS), Artesunic acid] | 37% | 18% | 42% |  | 45% |  | % inhibition Calu-3 Delta MOI 0.01 ([2]; listed as AS): effective
Ivermectin [Ivermectin Farmacia (IVM-f)] | 44% | 5% | 5% | 16% |  | ≥ 20% | 
CC[C@H]1OC(=O)[C@H](C)[C@@H](O[C@H]2C[C@@](C)(OC)[C@@H](O)[C@H](C)O2)[C@H](C)[C@@H](O[C@@H]2O[C@H](C)C[C@H](N(C)C)[C@H]2O)[C@](C)(O)C[C@@H](C)CN(C)[C@H](C)[C@@H](O)[C@]1(C)O [Azithromycin dehydrate (AZH), Azithromycin dehydrate] | 25% | 8% | 2% | 19% | 0% | ≥ 20% | 
COc1c(C)c2c(c(O)c1C/C=C(\C)CCC(=O)O)C(=O)OC2 [Mycophenolic acid (MYC), Mycophenolic acid] | 40% | 7% | 5% | 11% | 0% | ≥ 20% | 
